Like-named read-outs stand apart in the source and are kept apart here.
What was measured:
Human bone marrow cells = assay: 12 day bone marrow culture assay, granulocyte/macrophage colonies; assay type: cell-based; conditions: 12 days
Experimental: FIG. 20. Effect of GSAO on Proliferation of bone marrow progenitor cells. Human bone marrow cells were incubated in semi-solid agar containing 20% BCS, […] and 0 to 100 μM GSAA or GSAO for 12 days. Granulocyte/macrophage colonies of 40 or more cells were counted under an inverted microscope. The data points and errors represent the mean and SE of quadruplicate cultures.
GSAO reduced the number of granulocyte/macrophage colonies in a 12 day human bone marrow culture assay with an IC50 of ˜30 μM (FIG. 20). […] Human bone marrow cells (˜5×10^5 cells per mL) were added to semi-solid agar in DMEM containing 20% BCS, 5 ng per mL IL-3 and 0 to 100 μM GSM or GSAO. The cultures were incubated for 12 days at 37° C. and 5% CO2 and clusters of 40 or more cells were counted under an inverted microscope according to Metcalf (1977).

HDMVE cells = assay: Endothelial cell tube formation in Matrigel; assay type: cell-based, human; conditions: 18 hours; for effect on tube formation: 0.1, 1 or 100 μM
Experimental: FIG. 21. GSAO perturbs endothelial cell tube formation in Matrigel. Matrigel (100 μl) was added to wells of 96 well plates and allowed to gel for 60 minutes at 37° C. HDMVE cells (10,000 cells per well) in complete media containing 0.1, 1 or 100 μM GSAA or GSAO were seeded onto the Matrigel and the plates were incubated in 5% CO2, 37° C. The phase contrast micrographs were taken after 18 hours incubation.
Endothelial cells arrange into tube-like structures when seeded onto three-dimensional matrices such as the extracellular matrix preparation, Matrigel, or collagen. The tubes can be considered to represent immature blood vessels. Matrigel (100 μl, Becton Dickinson, Bedford, Mass.) was added to wells of 96 well plates (Gibco BRL, Gaithersburg, Md.) and allowed to gel for 60 minutes at 37° C. Human dermal microvascular endothelial (HDMVE) cells were harvested and cultured as described by Stathakis et al. (1997). HDMVE cells (8,000 cells per well) in 150 μl of M199 (Gibco BRL, Gaithersburg, Md.) media containing 30% pooled human serum, 50 μg per mL Heparin (Sigma, St. Louis, Mo.), 100 μg per mL Endothelial Cell Growth Supplement (Gibco BRL, Gaithersburg, Md.) and 0.1, 1 or 100 μM GSM or GSAO were seeded onto the Matrigel and the plates were incubated for 18 hours in 5% CO2, 37° C. Phase contrast micrographs of the wells were collected.

BAE cells = assay: Proliferation and viability of cultured cells, 72 hr, cell count; assay type: cell-based, bovine; conditions: for IC50: Bos taurus, 72 h, BAE, 72 hr
Experimental: BCE (Folkman et al. 1979), BAE, BxPC-3 (ATCC, Bethesda, Md.), HT1080 (Jiang et al., 1999), 3T3 (ATCC, Bethesda, Md.) and BVSM (Hogg et al., 1997) cells were harvested and cultured as indicated. Cells (0.5 mL of 30,000 or 100,000 cells per mL) were seeded into gelatinized 24-well culture plates (Corning Costar, Corning, N.Y.) in Dulbecco's Modified Eagle's Medium (DMEM, JHR Bioscience, Lenexa, Kans.) containing 10% fetal calf serum (FCS, Intergen Comp., Purchase, N.Y.) and 1% Glutamine Pen-Strep (GPS, Irvine Scientific, Santa Ana, Va.) and allowed to attach for 24 hr in 10% CO2 at 37° C. The media was then replaced with DMEM and 1% GPS containing 0 to 1 mM GSAO or GSAA and either 5% bovine calf serum (BCS, HyClone, Logan, Utah) and 1 ng per mL FGF-2 (Genzyme, Cambridge, Mass.) or 5% BCS and 10 ng per mL VEGF (Genzyme, Cambridge, Mass.) for BCE cells, 5% or 10% BCS for BAE cells, 5% BCS for BVSM cells, and 5% FCS for BxPC-3, HT1080 and 3T3 cells. Cells were cultured for 0 to 72 hr in 10% CO2 at 37° C. then dispersed in trypsin/EDTA (GibcoBRL, Granc Island, N.Y.), resuspended in Coulter balanced electrolyte solution and counted with a Z1 Coulter counter (Coulter Corp., Miami, Fla.). In all experiments there were two control wells containing DMEM with 1% GPS and either 5% BCS for BCE cells, 2% BCS for BAE and BVSM cells, or 2% FCS for BxPC-3, HT1080 and 3T3 cells. These wells represented no to limited proliferation.

[1] = Titration of cysteine with GSAO, DTNB assay; assay type: binding; conditions: cysteine 28 μM, GSAO 0–50 μM, 10 minutes
Experimental: FIG. 11. Titration of DMP or cysteine with GSAO. DMP (15 μM corresponding to 30 μM thiols) is or cysteine (28 μM) was incubated with GSAO (0–50 μM) for 10 minutes. DTNB (950 μM) was then added and the reactions incubated for a further 10 minutes. The concentration of thiol in the reactions was determined from the absorbance of the TNB dianion at 412 nm.
A stock solution of DMP (5 μL, 50 μmol) was dissolved in DMSO (995 μL), giving a concentration of 50 mM DMP. A second dilution of the 50 mM DMP stock solution (10 μL) in pH 7.0 buffer (0.1 M HEPES, 0.3 M NaCl, 1 mM EDTA) (990 μL) gave a working solution of 500 ? M DMP. The activity of the arsenical could then be determined by the titration of varying amounts of arsenical against the DMP working solution (10 μL) in a 96-well microbitre plate, with the total volume made up to 195 μL by addition of buffer. After a 10 minute incubation at room temperature, during which time the solutions were agitated on a plate shaker, 5 μL of a 37.9 mM stock solution of DTNB (15 mg) in DMSO (1 mL) was added, and the plate incubated with shaking for another 10 minutes. The absorbance at 412 nm due to the formation of the TNB dianion was measured using a Molecular Devices Thermomax Plus (Palo Alto, Calif.) microplate reader. The extinction coefficient for the TNB dianion at pH 7.0 is 14,150 M^−1cm^−1 at 412 nm (Riddles et al., 1983).

Compound	effect on colony numbers (Human bone marrow cells; up to a concentration of 100 μM)	effect on tube formation (HDMVE cells)	effect on proliferation or viability of BAE cells (BAE cells; not shown)	interaction of GSAO with cysteine in DTNB titration [1]	IC50 (Human bone marrow cells; Homo sapiens, Bone marrow cell, 288 h, semi-solid agar, 20% BCS, IL-3, read-out: IC50 for reduction of the number of granulocyte/macrophage colonies)	concentration at which effects on tube formation were apparent (HDMVE cells)	concentration at which effects on tube formation were marked (HDMVE cells)	IC50 (BAE cells; 5% BCS, read-out: Proliferation IC50)	IC50 (BAE cells; 5% BCS, >90% confluent, read-out: Viability IC50)	IC50 (BAE cells; 10% BCS, read-out: Proliferation IC50)	IC50 (BAE cells; 10% BCS, >90% confluent, read-out: Viability IC50)
N[C@@H](CCC(=O)N[C@@H](CSCC(=O)Nc1ccc([As](=O)(O)O)cc1)C(=O)NCC(=O)O)C(=O)O [GSAA, 4-(N-(S-glutathionylacetyl)amino)phenylarsonic acid, reference compound]	no effect	no apparent effect	did not effect either proliferation or viability	–	–	–	–	–	–	–	–
NC(CCC(=O)NC(CSCC(=O)Nc1ccc([As]=O)cc1)C(=O)NCC(=O)O)C(=O)O (stereo not drawn) [GSAO, 4-(N-(S-glutathionylacetyl)amino)-phenylarsenoxide]	–	perturbed tube formation	–	any interaction of GSAO with cysteine was displaced by DTNB	~30 µM	0.1 µM	100 µM	~0.02 µM	~8 µM	~0.2 µM	~10 µM

Reference: patent publication US7186695B2 (priority 2001, dated 2007)
